The values below come from PubChem BioAssay AID330 (DTP/NCI, 2004).

“And” between values parts separate entries of the source, which are not always exact repeats. Equal entries are not always repeated. Inconclusive results and toxic doses are left out.

The test system of the experiment is P388 leukemia ip, CD2F1 mice, survival T/C. Kind of experiment: NCI In Vivo Anticancer Drug Screen. Data for tumor model P388 Leukemia (intraperitoneal) in CD2F1 (CDF1) mice. Particulars: endpoint: median survival time, vehicle: Klucel (hydroxypropylcellulose) (HPC), higher = longer survival. In a few lines: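 Mice carrying the transplanted tumor received test compound or vehicle. Survival was recorded in each group, and the value is the treated-group measurement divided by that of the vehicle-treated control group.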

Take `Nc1ncnc2c1ncn2C1OC(COP(=O)(O)OP(=O)(O)OP(=O)(O)O)C(OP(=O)(O)OP(=O)(O)OP(=O)(O)O)C1O` (stereo not given) (tested in a mixture with another compound): the T/C (dose: 60.0 mg/kg/injection, schedule: Q01DX005 (ip)) was 93 % of control; the T/C (dose: 120.0 mg/kg/injection, schedule: Q01DX005 (ip)) was 103 % of control; the T/C (dose: 240.0 mg/kg/injection, schedule: Q01DX005 (ip)) was 101 % of control.
Turning to `CC(C)N(C)N=Nc1ccc(C(N)=O)cc1`, the T/C is, setting by setting: (dose: 50.0 mg/kg/injection, schedule: Q01DX009 (ip)) 114 % of control and 120 % of control; (dose: 100.0 mg/kg/injection, schedule: Q01DX009 (ip)) 113 % of control.
